Test results published in patent US6489537B1 (priority 1998, dated 2002).
Several values for one entry are separate records, joined by “and”; a condition that tells them apart may be missing. Equal values may be shown once. Read-outs that look alike come from different tables or passages of the source.

Assays:
TaPCS1 message = assay: Competitive PCR of TaPCS1 expression in wheat roots; format: in vivo; details: wheat roots treated with 100 μM Cd2+ for 6 hours versus untreated
[1] = tested on: S. cerevisiae INVSc1 cells; assay: Cd2+ dose-response growth of TaPCS1-expressing and control yeast cells; format: cell-based; details: YNB 1% sucrose/1% galactose, OD600 after 24 hours, read-out: K0.5 for growth
[2] = tested on: S. cerevisiae ycf1Δ mutant strain DTY167; format: cell-based; details: for IC50: read-out: concentration required for 50% attenuation of cell density
[3] = tested on: S. cerevisiae cells expressing TaPCS1; details: 6 hour preincubation, 200 μM Cd2+, OD 18 hours after Cd2+
[4] = tested on: S. cerevisiae cells expressing an Arabidopsis metallothionein; assay: Growth in presence of Cd2+ after BSO preincubation, metallothionein cells; format: cell-based; details: 6 hour preincubation, 60 μM Cd2+, OD 18 hours after Cd2+
Description: FIG. 13A is a graph depicting phytochelatin synthesis in cells expressing PCS. The growth of S. cerevisiae cells expressing either TaPCS1 (circles) or an Arabidopsis metallothionein (squares) in the presence of Cd^2+ (200 μM for TAPCS1 and 60 μM for metallothionein) following a 6 hour preincubation using different concentrations of BSO (L-Buthionine-sulfoxime), a glutathione synthesis inhibitor. The OD was measured 18 hours after the addition of Cd^2+.

S. cerevisiae cells = assay: Cd2+ accumulation using 109Cd2+; format: cell-based; details: versus empty pYES2 cells; 24 hour culture, non-inhibitory Cd2+ concentrations, n=3
Description: FIG. 10 is a graph depicting the greater accumulation of Cd^2+ by cells expressing TaPCS1 compared to the Cd^2+ accumulation by control cells. Yeast cells carrying the empty pYES2 plasmid (white bars) and TaPCS1-expressing cells (black bars) were grown in arginine-phosphate medium containing different non-inhibitory Cd^2+ concentrations. After 24 hours, the cells were harvested and washed and the amount of Cd^2+ accumulated inside the cells was determined using ^109 Cd^2+ (Error bars=S.E., n=3).
S. cerevisiae cells were grown in arginine-phosphate medium for 24 hours in the presence of various amounts of CdCl2 containing 0.5 μCi ^109Cd^2+. The cells were harvested and washed. The radioactivity was determined as described previously (Clemens et al., 1998, Proc. Natl. Acad. Sci. U.S.A. 95:12043-12048).

[5] = PC synthase activity assay (incorporation of GSH into PC2 and PC3); format: biochemical; details: for aggregate rate of incorporation of GSH into PC2 and PC3: purified protein
Description: PC synthase activity was assayed according to Grill et al. (1989, Proc. Natl. Acad. Sci. U.S.A. 86:6838-6842) in reaction media containing crude soluble fraction (50 μg protein), purified AtPCS1-FLAG (0.5 μg) or no protein, 3.3 mM GSH, 10 mM 2-mercaptoethanol and 200 mM Tris-HCl buffer (pH 8.0) plus or minus 200 μM CdCl2 at 37° C. for 40 minutes. After terminating the reactions with 5% (w/v) 5-sulfosalicylic acid, PCs were estimated in the supernatant by reverse-phase FPLC and reaction with DTNB.

[6] = Equilibrium dialysis of purified AtPCS1-FLAG against 109CdCl2; format: binding; details: immunoaffinity-purified protein
Description: The binding of Cd^2+ was determined by equilibrium dialysis of a 400-800 μl (160 μg) sample of purified AtPCS1-FLAG against 80 ml volumes of 10 mM Tris-HCl buffer, pH 7.8, containing 0.05 to 20 μM ^109CdCl2 (specific activity 22 Ci/mol, Amersham Pharmacia Biotech, Piscataway, N.J.) for 12 hours at 4° C. in 2 ml mini-collodion membrane tubes (molecular weight cut-off of 25,000; Schleicher and Schuell, Inc., Keene, N.H.). Protein-bound ^109Cd was estimated by measuring the radioactivity of the bulk medium outside the dialysis tube and that of the solution within the dialysis tube and determining the increase in ^109Cd radioactivity consequent on AtPCS1-FLAG. Binding constants and stoichiometries of binding were estimated by nonlinear least squares analysis (Marquardt, 1963, J. Soc. Ind. Appl. Math. 11:431-441) using the Ultrafit nonlinear curve fitting package from BioSoft (Ferguson, Mo.).

S. cerevisiae = assay: Growth of PCS-expressing yeast on YNB medium with 100 μM Cd2+; format: cell-based

Molecule: [Cl][Cd][Cl] [Cd^2+, CdCl2]
- fold higher concentration of TaPCS1 message (TaPCS1 message): 5-10 fold
- IC50 ([1]; TaPCS1-expressing cells): 90 µM
- IC50 ([1]; control cells with empty pYES2): 6 µM
- fold increase in concentration exerting 50% inhibition of growth in liquid culture [2]: 24 fold

Molecule: [Cu+2] [Cu^2+]
- fold increase in concentration exerting 50% inhibition of growth in liquid culture [2]: 2.4 fold

Molecule: [Hg+2] [Hg^2+]
- fold increase in concentration exerting 50% inhibition of growth in liquid culture [2]: 1.6 fold
- IC50 [2]: 4 µM and 6.3 µM

Molecule: O=[As]O [AsO2^−]
- fold increase in concentration exerting 50% inhibition of growth in liquid culture [2]: 1.6 fold
- IC50 [2]: 200 µM and 325 µM

Molecule: CCCCS(=N)(=O)CCC(N)C(=O)O [BSO, L-Buthionine-sulfoxime]
- effect on TaPCS1-mediated Cd2+ tolerance [3]: reduced the TaPCS1-mediated Cd^2+ tolerance in a dose-dependent manner
- effect on metallothionein-dependent Cd2+ tolerance [4]: no effect

B1: TaPCS1: wheat (Triticum aestivum) phytochelatin synthase, SEQ ID NO: 6 (protein, UniProt Q9SWW5 1-500, looked up)
Glutathione …: MEVASLYRRVLPSPPAVEFASAEGKRLFAEALQGGTMEGFFNLISYFQTQSEPAFCGLASLSVVLNALAIDPGRPWKGPWRWFDESMLDCCEPLHKVKAEGITFGKVVCLAHCAGARVQSFRADQTTIHDFRAHLTRCASSQDCHLISSYHRSPFKQTGTGHFSPIGGYHAEKDMALILDVARFKYPPHWVPLTLLWDAMNTTDEATGLLRGFMLVSRRSSAPSLLYTVSCGHGSWKSMAKYCVEDVPNLLKDESLDNVTTLLSRLVESLPANAGDLIKCVIEVRRKEEGESSLSKEEKERLFLKEKVLQQIRDTDLFRVVHELQYPKGLCGSCSSSSDEDSLAEIAATVCCQGAAFLSGNLVSRDGFCCRETCIKCIEANGDGLKTVISGTVVSKGNEQAVDLLLPTSSSKTSLCNSNLKSKIVKYPSSTDVLTVLLLVLQPNTWLGIKDENVKAEFQSLVSTDNLPDLLKQEILHLRRQLHYLAGCKGQEACQEPPSP
- increase in Cd2+ accumulation (S. cerevisiae cells): 30-50%

B2: AtPCS1-FLAG (protein, UniProt Q9S7Z3 1-485, looked up)
Glutathione …: MAMASLYRRSLPSPPAIDFSSAEGKLIFNEALQKGTMEGFFRLISYFQTQSEPAYCGLASLSVVLNALSIDPGRKWKGPWRWFDESMLDCCEPLEVVKEKGISFGKVVCLAHCSGAKVEAFRTSQSTIDDFRKFVVKCTSSENCHMISTYHRGVFKQTGTGHFSPIGGYNAERDMALILDVARFKYPPHWVPLKLLWEAMDSIDQSTGKRRGFMLISRPHREPGLLYTLSCKDESWIEIAKYLKEDVPRLVSSQHVDSVEKIISVVFKSLPSNFNQFIRWVAEIRITEDSNQNLSAEEKSRLKLKQLVLKEVHETELFKHINKFLSTVGYEDSLTYAAAKACCQGAEILSGSPSKEFCCRETCVKCIKGPDDSEGTVVTGVVVRDGNEQKVDLLVPSTQTECECGPEATYPAGNDVFTALLLALPPQTWSGIKDQALMHEMKQLISMASLPTLLQEEVLHLRRQLQLLKRCQENKEEDDLAAPAY
modifications: FLAG tag
- aggregate rate of incorporation of GSH into PC2 and PC3 ([5]; absence of Cd2+): < 0.01 nmol/mg/min
- aggregate rate of incorporation of GSH into PC2 and PC3 ([5]; presence of Cd2+ (200 μM CdCl2), 3.3 mM GSH, 37° C.): 30000 to 35000 nmol/mg/min
- catalytic activity exceeding that of previous preparations from plants ([5]; versus Grill et al., 1989): more than 10^3 fold
- stoichiometric ratio of Cd2+ binding (cadmium per AtPCS1) [6]: 7.09±0.94

B3: AtPCS1: Arabidopsis thaliana phytochelatin synthase, 55 kDa, SEQ ID NO: 2 (protein, UniProt Q9S7Z3 1-485, looked up)
Glutathione …: B2 Glutathione …
- Cd2+ tolerance conferred when expressed in S. cerevisiae (S. cerevisiae): strong Cd^2+ tolerance
- stoichiometric ratio of Cd2+ binding (cadmium per AtPCS1) [6]: approximately 6
